Laboratory results as given in ChEMBL document CHEMBL1201862, “PubChem BioAssay data set” (2004).
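Exposure lasted 48 hours, with cells grown in 96-well plates and compounds tested at five concentrations. Abbreviation: GI50, concentration required for 50% inhibition of growth.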 Active and inactive are the calls of the source. No stated cut-off is given here; in the data, active = GI50 up to about 1.1 µM and inactive = higher.

Columns and labels:
Assay in all cases: growth of human tumour cells (NCI), 48 h
SK-MEL-28 = test system: SK-MEL-28
U-251 = test system: U-251
EKVX = test system: EKVX
SN12C = test system: SN12C
Hs-578T = test system: Hs-578T
RPMI-8226 = test system: RPMI-8226
K562 = test system: K562
IGROV-1 = test system: IGROV-1
OVCAR-3 = test system: OVCAR-3
UACC-62 = test system: UACC-62
LOX IMVI = test system: LOX IMVI
MDA-N = test system: MDA-N
SK-MEL-5 = test system: SK-MEL-5
SR = test system: SR
MDA-MB-435 = test system: MDA-MB-435
KM12 = test system: KM12
A498 = test system: A498
T47D = test system: T47D
BT-549 = test system: BT-549

SMILES | GI50 (SK-MEL-28) | GI50 (U-251) | GI50 (EKVX) | GI50 (SN12C) | GI50 (Hs-578T) | GI50 (RPMI-8226) | GI50 (K562) | GI50 (IGROV-1) | GI50 (OVCAR-3) | GI50 (UACC-62) | GI50 (LOX IMVI) | GI50 (MDA-N) | GI50 (SK-MEL-5) | GI50 (SR) | GI50 (MDA-MB-435) | GI50 (KM12) | GI50 (A498) | GI50 (T47D) | GI50 (BT-549)
O=C(O)c1cccc(NC(C(=O)c2ccccc2)c2ccccc2)c1 (stereo not given) | > 100 µM (inactive) | > 100 µM (inactive) | > 100 µM (inactive) | > 100 µM (inactive) | 0.714 µM (active) | > 100 µM (inactive) | > 100 µM (inactive) | > 100 µM (inactive) | > 100 µM (inactive) | > 100 µM (inactive) | > 100 µM (inactive) | > 100 µM (inactive) | > 100 µM (inactive) | > 100 µM (inactive) | > 100 µM (inactive) | > 100 µM (inactive) | > 100 µM (inactive) | > 100 µM (inactive) | –
CCCCCCCCCCCCCCCCCCNc1nc(=O)n(C2CC(OP(=O)(O)OCC3OC(n4cc(F)c(=O)[nH]c4=O)CC3O)C(CO)O2)cc1F (stereo not given) | 27.1 µM (inactive) | 17.5 µM (inactive) | > 100 µM (inactive) | > 100 µM (inactive) | 35.2 µM (inactive) | 11.2 µM (inactive) | 26.9 µM (inactive) | 46.3 µM (inactive) | 29 µM (inactive) | 20.5 µM (inactive) | 26.1 µM (inactive) | – | 34.7 µM (inactive) | 4.86 µM (inactive) | 75.2 µM (inactive) | 11.2 µM (inactive) | 13 µM (inactive) | 31.2 µM (inactive) | –
Nc1ccc(Sc2nnc(N)s2)cc1 | > 100 µM (inactive) | > 100 µM (inactive) | > 100 µM (inactive) | > 100 µM (inactive) | > 100 µM (inactive) | > 100 µM (inactive) | > 100 µM (inactive) | > 100 µM (inactive) | – | – | – | > 100 µM (inactive) | > 100 µM (inactive) | > 100 µM (inactive) | > 100 µM (inactive) | > 100 µM (inactive) | – | > 100 µM (inactive) | –
COC(=O)C1=C(C(=O)OC)C2(C)C=CC1O2 (stereo not given) | 16 µM (inactive) | 18 µM (inactive) | 22 µM (inactive) | 17.5 µM (inactive) | 26.4 µM (inactive) | 1.91 µM (inactive) | 4.52 µM (inactive) | 19.4 µM (inactive) | 0.55 µM (active) | 17.6 µM (inactive) | 16.7 µM (inactive) | – | 18.5 µM (inactive) | – | 19.1 µM (inactive) | – | 23.7 µM (inactive) | 3.44 µM (inactive) | 23.1 µM (inactive)
Nn1c(S)nnc1-c1ccccc1Nc1ccccc1-c1nnc(S)n1N | > 50 µM (inactive) | > 50 µM (inactive) | > 50 µM (inactive) | – | – | 41.8 µM (inactive) | > 50 µM (inactive) | > 50 µM (inactive) | > 50 µM (inactive) | > 50 µM (inactive) | > 50 µM (inactive) | – | > 50 µM (inactive) | > 50 µM (inactive) | > 50 µM (inactive) | > 50 µM (inactive) | – | – | > 50 µM (inactive)
Cn1cc(NC(=O)c2cc(NC(=O)CCCCCCCCCCC(=O)Nc3cc(C(=O)Nc4cc(C(=O)NCCC(=N)N)n(C)c4)n(C)c3)cn2C)cc1C(=O)NCCC(=N)N | > 10 µM (inactive) | 33 µM (inactive) | 31 µM (inactive) | 37.1 µM (inactive) | – | – | 74 µM (inactive) | 24.5 µM (inactive) | 52.7 µM (inactive) | 7.5 µM (inactive) | 40.4 µM (inactive) | – | 15.8 µM (inactive) | – | – | 12.4 µM (inactive) | – | – | –
